According to ChEMBL document CHEMBL3864133, “Discovery of a Potent and Selective in Vivo Probe (GNE-272) for the Bromodomains of CBP/EP300” (J Med Chem, 2016):
The source made the active and inactive calls. No cut-off for these calls is given here.

Experiments:
[1] = Apparent permeability of the compound across apical side to basolateral side in MDCK cells at 10 uM measured after 180 mins by LC-MS/MS analysis; format: ADME, cell-based, Canis lupus familiaris; conditions: dog
[2] = Protein binding in nu/nu mouse plasma at 5 uM measured after 4 hrs by LC-MS/MS analysis; format: ADME, cell-free; conditions: read-out: PPB (converted)
[3] = Half life in nu/nu mouse at 1 mg/kg, iv or 100 mg/kg, po by LC-MS/MS analysis; format: ADME, organism-based; conditions: in vivo
[4] = Oral bioavailability in nu/nu mouse at 100 mg/kg by LC-MS/MS analysis; format: ADME, organism-based; conditions: in vivo
[5] = Cmax in nu/nu mouse at 100 mg/kg, po by LC-MS/MS analysis; format: ADME, organism-based; design: dose 100 mg/kg, route oral; conditions: in vivo
[6] = target: Cytochrome P450 2C9 (Homo sapiens, UniProt P11712); experiment: Inhibition of CYP2C9 in human liver microsomes assessed as formation of 7-hydroxywarfarin from warfarin measured after 30 mins in presence of NADPH by LC-MS/MS analysis; format: ADME; conditions: 0.5 h
[7] = target: T1, Cytochrome P450 3A4 (Homo sapiens, UniProt P08684); experiment: Inhibition of CYP3A4 in human liver microsomes assessed as formation of 1-hydroxymidazolam from midazolam measured after 10 mins in presence of NADPH by LC-MS/MS analysis; format: ADME
[8] = target: T1, Cytochrome P450 3A4; experiment: Inhibition of CYP3A4 in human liver microsomes assessed as formation of 6beta-hydroxytestosterone from testosterone measured after 10 mins in presence of NADPH by LC-MS/MS analysis; format: ADME; conditions: read-out: INH
[9] = target: Cytochrome P450 1A2 (Homo sapiens, UniProt P05177); experiment: Inhibition of CYP1A2 in human liver microsomes assessed as formation of acetaminophen from phenacetin measured after 30 mins in presence of NADPH by LC-MS/MS analysis; format: ADME; conditions: 0.5 h
[10] = target: Cytochrome P450 2C19 (Homo sapiens, UniProt P33261); experiment: Inhibition of CYP2C19 in human liver microsomes assessed as formation of 4-hydroxymephenytoin from mephenytoin measured after 40 mins in presence of NADPH by LC-MS/MS analysis; format: ADME
[11] = target: Cytochrome P450 2D6 (Homo sapiens, UniProt P10635); experiment: Inhibition of CYP2D6 in human liver microsomes assessed as formation of dextrophan from dextromethorphan measured after 10 mins in presence of NADPH by LC-MS/MS analysis; format: ADME
[12] = target: T2, CREB-binding protein/Histone acetyltransferase p300 (Homo sapiens, UniProt Q09472+Q92793); experiment: Inhibition of CBP/EP300 in human KMS34 cells assessed as decrease in MYC expression at 5 uM measured after 4 hrs by RT-PCR analysis relative to DMSO control; format: cell-based
T2 sequence (Q09472 whole entry, looked up): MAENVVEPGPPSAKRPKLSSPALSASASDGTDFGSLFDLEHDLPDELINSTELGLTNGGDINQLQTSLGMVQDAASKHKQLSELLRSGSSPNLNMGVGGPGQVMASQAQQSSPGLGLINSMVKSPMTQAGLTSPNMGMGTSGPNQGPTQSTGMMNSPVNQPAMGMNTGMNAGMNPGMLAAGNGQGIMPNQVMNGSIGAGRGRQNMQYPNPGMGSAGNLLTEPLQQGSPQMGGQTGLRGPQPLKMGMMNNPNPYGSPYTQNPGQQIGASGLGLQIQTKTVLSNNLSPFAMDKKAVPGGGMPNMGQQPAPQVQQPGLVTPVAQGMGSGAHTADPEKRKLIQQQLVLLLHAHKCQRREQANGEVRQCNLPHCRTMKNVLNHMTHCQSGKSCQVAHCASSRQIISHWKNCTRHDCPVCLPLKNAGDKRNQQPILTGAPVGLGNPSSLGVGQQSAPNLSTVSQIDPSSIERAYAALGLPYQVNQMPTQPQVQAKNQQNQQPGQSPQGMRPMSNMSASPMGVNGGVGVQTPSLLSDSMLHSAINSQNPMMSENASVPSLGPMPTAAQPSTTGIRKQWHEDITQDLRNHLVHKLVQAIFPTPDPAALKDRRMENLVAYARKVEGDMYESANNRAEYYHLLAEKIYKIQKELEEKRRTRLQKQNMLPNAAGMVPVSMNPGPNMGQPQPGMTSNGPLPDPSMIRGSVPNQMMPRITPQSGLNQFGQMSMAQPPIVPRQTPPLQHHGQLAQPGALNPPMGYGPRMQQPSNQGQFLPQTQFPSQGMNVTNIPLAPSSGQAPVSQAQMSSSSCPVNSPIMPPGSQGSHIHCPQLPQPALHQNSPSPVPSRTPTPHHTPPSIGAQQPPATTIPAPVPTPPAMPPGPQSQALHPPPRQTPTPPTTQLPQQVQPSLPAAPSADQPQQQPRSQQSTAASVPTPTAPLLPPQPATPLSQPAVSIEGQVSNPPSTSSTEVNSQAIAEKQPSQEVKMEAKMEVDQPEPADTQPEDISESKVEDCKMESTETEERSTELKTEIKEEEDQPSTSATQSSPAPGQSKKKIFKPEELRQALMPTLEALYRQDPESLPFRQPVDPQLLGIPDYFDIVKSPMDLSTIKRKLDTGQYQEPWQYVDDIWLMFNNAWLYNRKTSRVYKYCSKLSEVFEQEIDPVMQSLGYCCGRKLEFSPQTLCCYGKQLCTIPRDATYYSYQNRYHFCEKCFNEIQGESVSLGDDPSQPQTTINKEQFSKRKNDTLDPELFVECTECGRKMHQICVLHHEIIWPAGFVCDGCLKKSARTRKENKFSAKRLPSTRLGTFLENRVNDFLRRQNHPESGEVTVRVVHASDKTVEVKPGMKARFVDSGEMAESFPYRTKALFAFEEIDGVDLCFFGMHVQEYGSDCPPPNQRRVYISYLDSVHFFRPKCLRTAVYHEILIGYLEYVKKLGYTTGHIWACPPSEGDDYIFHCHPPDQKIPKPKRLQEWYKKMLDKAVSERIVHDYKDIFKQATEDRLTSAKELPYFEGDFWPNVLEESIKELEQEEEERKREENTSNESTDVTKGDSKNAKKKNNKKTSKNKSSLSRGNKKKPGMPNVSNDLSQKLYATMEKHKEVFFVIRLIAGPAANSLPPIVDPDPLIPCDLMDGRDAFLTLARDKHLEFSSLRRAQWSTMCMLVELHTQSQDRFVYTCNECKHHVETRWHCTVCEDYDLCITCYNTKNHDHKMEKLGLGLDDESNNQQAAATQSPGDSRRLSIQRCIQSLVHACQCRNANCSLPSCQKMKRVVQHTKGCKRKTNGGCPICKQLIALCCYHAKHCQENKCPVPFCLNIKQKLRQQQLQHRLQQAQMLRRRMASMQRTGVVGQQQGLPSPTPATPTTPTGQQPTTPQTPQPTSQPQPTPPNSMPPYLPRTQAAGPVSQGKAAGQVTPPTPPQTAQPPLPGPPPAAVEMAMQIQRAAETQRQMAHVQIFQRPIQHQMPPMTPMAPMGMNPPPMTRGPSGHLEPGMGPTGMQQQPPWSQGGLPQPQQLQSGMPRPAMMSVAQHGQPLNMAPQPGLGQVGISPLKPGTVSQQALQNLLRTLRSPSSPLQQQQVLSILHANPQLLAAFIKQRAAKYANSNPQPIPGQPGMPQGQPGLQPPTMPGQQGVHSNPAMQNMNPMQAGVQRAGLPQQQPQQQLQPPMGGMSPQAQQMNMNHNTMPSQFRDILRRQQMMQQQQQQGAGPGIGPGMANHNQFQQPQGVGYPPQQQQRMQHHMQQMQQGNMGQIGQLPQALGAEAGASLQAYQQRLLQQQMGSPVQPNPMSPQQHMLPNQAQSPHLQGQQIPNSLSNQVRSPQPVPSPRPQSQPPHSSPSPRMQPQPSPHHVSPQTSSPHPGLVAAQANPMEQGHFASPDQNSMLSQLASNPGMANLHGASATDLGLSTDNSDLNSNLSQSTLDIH
T2 sequence (Q92793 whole entry, looked up): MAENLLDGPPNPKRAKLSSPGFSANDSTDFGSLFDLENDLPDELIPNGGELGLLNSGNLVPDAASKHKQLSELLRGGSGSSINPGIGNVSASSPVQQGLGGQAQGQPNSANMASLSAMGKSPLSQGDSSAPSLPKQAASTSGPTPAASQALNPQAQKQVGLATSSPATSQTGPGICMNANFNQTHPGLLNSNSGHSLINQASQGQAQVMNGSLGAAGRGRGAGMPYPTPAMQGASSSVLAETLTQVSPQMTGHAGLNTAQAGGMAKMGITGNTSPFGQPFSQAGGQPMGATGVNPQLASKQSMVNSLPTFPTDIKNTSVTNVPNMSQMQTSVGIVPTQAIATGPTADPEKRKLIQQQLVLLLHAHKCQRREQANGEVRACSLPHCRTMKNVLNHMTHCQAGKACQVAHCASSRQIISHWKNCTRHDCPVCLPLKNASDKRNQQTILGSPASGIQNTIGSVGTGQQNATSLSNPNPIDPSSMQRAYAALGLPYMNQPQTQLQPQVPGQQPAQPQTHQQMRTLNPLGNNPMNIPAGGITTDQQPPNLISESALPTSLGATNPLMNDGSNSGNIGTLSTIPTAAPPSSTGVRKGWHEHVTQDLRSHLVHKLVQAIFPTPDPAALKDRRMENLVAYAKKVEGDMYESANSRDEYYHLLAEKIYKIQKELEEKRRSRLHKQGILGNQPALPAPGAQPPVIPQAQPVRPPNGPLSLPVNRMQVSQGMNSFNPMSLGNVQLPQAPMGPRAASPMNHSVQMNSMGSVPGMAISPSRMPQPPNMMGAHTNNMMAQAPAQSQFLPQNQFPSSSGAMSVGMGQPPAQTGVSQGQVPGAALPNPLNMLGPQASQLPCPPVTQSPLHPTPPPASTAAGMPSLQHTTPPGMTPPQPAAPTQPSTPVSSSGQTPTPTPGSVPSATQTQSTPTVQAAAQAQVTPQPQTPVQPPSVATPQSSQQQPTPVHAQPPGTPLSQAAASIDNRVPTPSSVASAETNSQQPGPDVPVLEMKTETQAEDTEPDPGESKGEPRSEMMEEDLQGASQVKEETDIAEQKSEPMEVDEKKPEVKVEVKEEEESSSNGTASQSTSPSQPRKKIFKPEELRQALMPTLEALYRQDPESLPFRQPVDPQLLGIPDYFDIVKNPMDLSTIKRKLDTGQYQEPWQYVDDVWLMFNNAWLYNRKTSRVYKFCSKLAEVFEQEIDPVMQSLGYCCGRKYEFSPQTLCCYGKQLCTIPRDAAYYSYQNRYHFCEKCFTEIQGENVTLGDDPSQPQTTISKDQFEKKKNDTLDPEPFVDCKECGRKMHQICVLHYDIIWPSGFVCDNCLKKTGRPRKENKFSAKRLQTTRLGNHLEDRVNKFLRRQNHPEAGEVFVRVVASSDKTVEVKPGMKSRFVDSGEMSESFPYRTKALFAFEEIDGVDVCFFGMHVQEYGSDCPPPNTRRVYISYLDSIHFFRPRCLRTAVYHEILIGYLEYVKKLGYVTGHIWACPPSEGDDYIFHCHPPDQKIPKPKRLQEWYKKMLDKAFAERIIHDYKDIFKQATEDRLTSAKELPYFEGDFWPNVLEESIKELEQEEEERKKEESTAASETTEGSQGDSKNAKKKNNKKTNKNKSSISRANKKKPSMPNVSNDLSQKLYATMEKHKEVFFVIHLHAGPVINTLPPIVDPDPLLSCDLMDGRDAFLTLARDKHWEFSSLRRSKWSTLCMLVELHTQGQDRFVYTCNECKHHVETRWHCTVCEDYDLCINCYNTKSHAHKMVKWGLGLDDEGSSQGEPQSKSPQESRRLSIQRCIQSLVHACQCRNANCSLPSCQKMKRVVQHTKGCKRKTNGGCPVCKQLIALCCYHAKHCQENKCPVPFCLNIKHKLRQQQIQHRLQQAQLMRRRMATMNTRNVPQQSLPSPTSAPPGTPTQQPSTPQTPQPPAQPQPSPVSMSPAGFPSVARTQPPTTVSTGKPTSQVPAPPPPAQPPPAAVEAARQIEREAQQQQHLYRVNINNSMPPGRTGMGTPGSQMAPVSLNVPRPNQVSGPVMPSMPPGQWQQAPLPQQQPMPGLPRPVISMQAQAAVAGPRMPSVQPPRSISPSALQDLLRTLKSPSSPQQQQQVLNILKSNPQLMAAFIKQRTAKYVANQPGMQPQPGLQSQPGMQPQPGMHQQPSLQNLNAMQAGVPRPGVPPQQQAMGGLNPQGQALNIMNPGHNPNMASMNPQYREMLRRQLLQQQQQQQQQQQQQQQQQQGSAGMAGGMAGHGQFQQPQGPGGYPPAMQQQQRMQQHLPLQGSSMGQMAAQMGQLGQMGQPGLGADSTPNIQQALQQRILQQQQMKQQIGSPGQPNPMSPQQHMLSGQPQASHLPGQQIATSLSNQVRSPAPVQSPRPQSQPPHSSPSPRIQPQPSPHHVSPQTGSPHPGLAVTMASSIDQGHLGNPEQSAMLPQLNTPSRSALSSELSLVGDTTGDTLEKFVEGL

[13] = target: T2, CREB-binding protein/Histone acetyltransferase p300; experiment: Inhibition of CBP/EP300 in human Pfeiffer cells assessed as decrease in MYC expression at 5 uM measured after 4 hrs by RT-PCR analysis relative to DMSO control; format: cell-based
[14] = target: T2, CREB-binding protein/Histone acetyltransferase p300; experiment: Inhibition of CBP/EP300 in human MOLM16 cells assessed as suppression of CCND1 expression at 5 uM measured after 4 hrs by RT-PCR analysis relative to DMSO control; format: cell-based
[15] = target: T2, CREB-binding protein/Histone acetyltransferase p300; experiment: Inhibition of CBP/EP300 in human MOLM16 cells assessed as suppression of BCL-XL expression at 5 uM measured after 4 hrs by RT-PCR analysis relative to DMSO control; format: cell-based
[16] = target: T2, CREB-binding protein/Histone acetyltransferase p300; experiment: Inhibition of CBP/EP300 in human MOLM16 cells assessed as suppression of BCL6 expression at 5 uM measured after 4 hrs by RT-PCR analysis relative to DMSO control; format: cell-based
[17] = target: T2, CREB-binding protein/Histone acetyltransferase p300; experiment: Inhibition of CBP/EP300 in human MOLM16 cells assessed as decrease in MYC expression measured after 4 hrs by RT-PCR analysis; format: cell-based
[18] = target: T2, CREB-binding protein/Histone acetyltransferase p300; experiment: Inhibition of CBP/EP300 in human MOLM16 cells assessed as decrease in MYC expression at 0.1 to 1 uM measured after 4 hrs Western blot analysis; format: cell-based
[19] = test system: Jurkat; experiment: Antiproliferative activity against human Jurkat cells measured after 6 days by CellTiter-Glo assay; format: functional, cell-based
[20] = test system: KMS34; experiment: Antiproliferative activity against human KMS34 cells measured after 6 days by CellTiter-Glo assay; format: functional, cell-based
[21] = test system: HL-60; experiment: Antiproliferative activity against human HL60 cells measured after 6 days by CellTiter-Glo assay; format: functional, cell-based
[22] = test system: Pfeiffer; experiment: Antiproliferative activity against human Pfeiffer cells measured after 6 days by CellTiter-Glo assay; format: functional, cell-based
[23] = test system: MOLM16; experiment: Antiproliferative activity against human MOLM16 cells measured after 6 days by CellTiter-Glo assay; format: functional, cell-based
[24] = test system: EJM; experiment: Antiproliferative activity against human EJM cells measured after 6 days by CellTiter-Glo assay; format: functional, cell-based
[25] = test system: LP-1; experiment: Antiproliferative activity against human LP-1 cells measured after 6 days by CellTiter-Glo assay; format: functional, cell-based
[26] = test system: U-266; experiment: Antiproliferative activity against human U266B1 cells measured after 6 days by CellTiter-Glo assay; format: functional, cell-based
[27] = test system: Kasumi 1; experiment: Antiproliferative activity against human Kasumi-1 cells measured after 6 days by CellTiter-Glo assay; format: functional, cell-based
[28] = test system: KMS-11; experiment: Antiproliferative activity against human KMS11 cells measured after 6 days by CellTiter-Glo assay; format: functional, cell-based
[29] = Decrease in MYC mRNA expression in tumor of SCID beige mouse xenografted with human MOLM16 cells at 10 mg/kg, po administered twice daily via gavage as single dose measured after 2 to 8 hrs by RT-PCR analysis; format: functional, organism-based
[30] = Decrease in MYC mRNA expression in tumor of SCID beige mouse xenografted with human MOLM16 cells at 30 mg/kg, po administered twice daily via gavage as single dose measured after 2 hrs by RT-PCR analysis relative to control; format: functional, organism-based
[31] = Decrease in MYC mRNA expression in tumor of SCID beige mouse xenografted with human MOLM16 cells at 100 mg/kg, po administered twice daily via gavage as single dose measured after 2 hrs by RT-PCR analysis relative to control; format: functional, organism-based
[32] = Antitumor activity against human MOLM16 cells xenografted in SCID beige mouse assessed as tumor growth inhibition at 12.5 mg/kg, po BID administered through gavage for 21 days; format: functional; conditions: read-out: TGI
[33] = Antitumor activity against human MOLM16 cells xenografted in SCID beige mouse assessed as tumor growth inhibition at 25 mg/kg, po BID administered through gavage for 21 days; format: functional; conditions: read-out: TGI
[34] = test system: Mus musculus; experiment: Toxicity in SCID beige mouse xenografted with human MOLM16 cells assessed as body weight loss at 12.5 to 50 mg/kg, po BID administered through gavage for 21 days; format: organism-based; conditions: in vivo
[35] = test system: Mus musculus; experiment: Inhibition of MYC mRNA expression in SCID beige mouse xenografted with human MOLM16 cells assessed as MYC transcript level at 3 to 100 mg/kg, po administered twice daily via gavage as single dose measured after 24 hrs by RT-PCR analysis relative to control; format: functional; design: scale not given: the % may be the effect or the level left
[36] = Time at which unbound drug level in SCID beige mouse tumor stays above cellular MYC EC90 at 10 mg/kg, po administered twice daily via gavage as single dose; format: ADME, organism-based; conditions: in vivo

Papp A→B at 3 h, 10 µM [1]: 15 ×10⁻⁶ cm/s
fraction unbound at 4 h, 5 µM [2]: 0.16
half-life [3]: 2 h
bioavailability [4]: 100%
Cmax [5]: 163 µM
INH [6]: > 10 µM
INH [7]: > 10 µM
IC50 [8]: > 10000 nM
INH [9]: > 10 µM
INH [10]: > 10 µM
INH [11]: > 10 µM
inhibition [12]: Active
inhibition [13]: Active
inhibition [14]: Active
inhibition [15]: Active
inhibition [16]: Active
EC90 [17]: 621 nM
inhibition [18]: Active
Time [36]: 24 h
SMILES: CC(=O)N1CCc2c(c(Nc3ccc(-c4cnn(C)c4)cc3F)nn2[C@@H]2CCOC2)C1
Activity [19]: Active
Activity [20]: Active
Activity [21]: Active
Activity [22]: Active
Activity [23]: Active
Activity [24]: Active
Activity [25]: Active
Activity [26]: Active
Activity [27]: Active
Activity [28]: Active
inhibition [29]: Active
inhibition [30]: 78%
inhibition [31]: 86%
inhibition in vivo at 12.5 mg/kg [32]: 46%
inhibition in vivo at 25 mg/kg [33]: 65%
Activity [34]: 7.4%
Activity [35]: 150 - 200%
